Laboratory results reported in patent US20090069441A1, “Motuporamine Mimic Agents” (priority 2006, published 2009).
Where two headings read alike, the source gives them in different places.

Experiments:
[1] = system: Drosophila imaginal leg discs; assay: Imaginal disc eversion assay; assay type: cell-based, Drosophila melanogaster; conditions: 15 hr incubation in Robb's medium; for inhibition at 18 µM: Drosophila melanogaster
Method: DihydroMotuporamine C, 4a, was used to develop an imaginal disc assay in Drosophila flies. The imaginal leg discs were collected by microscopic dissection from maggots. […] Inhibition was measured as failure of the disc to fully develop into a fly leg after 15 hr of incubation in Robb's growth medium. This presumably occurs by overactivation of Rho, an important signaling pathway in development. Hyper-stimulation of this pathway is sufficient to block development of the fly leg.
Fly Stocks: 20 female and 5 male wild type Oregon variant of Drosophila melanogaster interbred in blue food medium for 24 hours then flies are removed. Third instar wall-crawling larvae collected then dissected on the sixth day. Flies kept in 25° C. incubation chamber.
Blue Food Preparation: Standard corn meal medium heated then mixed completely with aqueous 1% Bromophenol Blue. The food medium is cooled for one day or more before use.
Dissection Medium: Ringer's Buffer with 10 uL 0.1% BSA. Ringer's Medium consists of 130 mM NaCl, 5 mM KCl, 1.5 mM CaCl2-2H2O, Stored at room temperature (23° C.), BSA added before dissection.
Cultivation Medium: Minimal Robb's Medium with 10 uL 0.1% BSA. Minimal Robb's Medium consists of 40 mM KCl, 0.4 mM KH2PO4, 40 mM NaCl, 0.4 mM NaH2PO4.7H2O, 1.2 mM MgSO4.7H2O, 1.2 mM MgCl2-6H2O, 1 mM CaCl2-2H2O, 10 mM Glucose, 0.2 mM L-asparagine, 4.0 mM L-glutamine, 0.16 mM Glycine, 0.64 mM L-leucine, 0.32 mM L-proline, 0.16 mM R-Serine, 0.64 mM L-valine. Stored at −25° C. One day before dissection, aliquot defrosted in 4° C. Add BSA then warmed to room temperature (23° C.) before dissection.
0.1% BSA: 0.1 g BSA fraction V (Sigma#A-9647) in 10 mL distilled H2O, Stored at 4° C.
Developmental Hormone: 1 mg 20-hydroxyecdysone (Sigma #H-5142) in 1 mL 100% Ethanol. Stored at −25° C. Before use, stock is diluted 10× (1 mL added to 9 mL of 100% Ethanol). 10 μL of diluted 20-hydroxyecdysone is added to culture.
Dissection Procedures: Third instar larvae are removed from cultivation bottle with a wetted brush and washed in dH2O to remove food medium clinging to larvae. The cleaned larvae are dissected in Ringer's Medium using forceps. The imaginal discs are washed in fresh Ringer's Medium, and then cultivated with 1 mL of Robb's Medium in 12-well culture plate. Each culture well should have 30˜40 imaginal discs.
Culturing Procedures: In a larger container, place the 12-well culture plate on a moist towel, then seal the large container. Cultivate at 25° C. for 15 hours. Evaluation: Three categories will be used to grade the eversion of each imaginal disc. Full Eversion—the leg is fully extended from the disc. Partial Eversion—the leg is protruding from the epithelial. No Eversion—no sign of any protrusion.

[2] = system: CHO-MG cells; assay: Cytotoxicity in PAT-deficient CHO-MG cells; assay type: cell-based, Chinese hamster
Excerpt: (§1) In terms of Table 1, L1210 cells are mouse leukemia cells and are the gold standard in terms of evaluating polyamine cytotoxicity data due to a plethora of prior data in this cell line for other polyamine structures. Clearly 7a was similar in all respects to 4a (Table 1). […] The lower the Ki value, the higher the affinity of the drug for the polyamine transporter (PAT) on the cell surface. Chinese hamster ovary (CHO) cells and a mutant line without an active PAT (CHO-MG) also evaluated the PAT selectivity of these drugs.
(§2) CHO and CHO-MG studies. Chinese hamster ovary (CHO) cells were chosen along with a mutant cell line (CHO-MG) in order to comment on how the synthetic conjugates gain access to cells. The CHO-MG cell line is polyamine-transport deficient and was isolated after selection for growth resistance to methylglyoxalbis(guanylhydrazone), MGBG, (CH3C[═N—NHC(═NH)NH2]CH[═N—NHC(═NH)NH2]) using a single-step selection after mutagenesis with ethylmethanesulfonate (Mandel et al., J. Cell. Physiol., 1978, 97, 335-344; Byers et al., Biochem. J. 1989, 263, 745-752).
For the purposes of this study, the CHO-MG cell line represents cells with no PAT activity and provided a model for alternative modes of entry or action, which are independent of PAT. These alternative modes of entry include passive diffusion or utilization of another transporter. The alternative modes of action may also include interactions on the outer surface of the plasma membrane or other membrane receptor interactions.
(§3) Biological studies. Murine leukemia cells (L1210), CHO and CHO-MG cells were grown in RPMI medium supplemented with 10% fetal calf serum, glutamine (2 mM), penicillin (100 U/mL), streptomycin (50 μg/mL). L-Proline (2 μg/mL) was added to the culture medium for CHO-MG cells. Cells were grown at 37° C. under a humidified 5% CO2 atmosphere. […] Trypan blue staining was used to determine cell viability before the initiation of a cytotoxicity experiment. Cells in early to mid log-phase were used. IC50 determinations. Cell growth was assayed in sterile 96-well microtiter plates (Becton-Dickinson, Oxnard, Calif., USA). L1210 cells were seeded at 5e^4 cells/mL of medium (100 μL/well). CHO and CHO-MG cells were plated at 2e^3 cells/mL. Drug solutions (10 μL per well) of appropriate concentration were added at the time of seeding for L1210 cells and after an overnight incubation for the CHO cell lines. After exposure to the drug for 48 hr, cell growth was determined by measuring formazan formation from 3-(4,5-dimethylthiazol-2-yl)2,5-diphenyltetrazolium using a Titertek Multiskan MCC/340 microplate reader for absorbance (540 nm) measurements (Mosmann, T., J. Immunol. Methods 1983, 65, 55-63).

[3] = system: CHO cells; assay: Cytotoxicity in CHO cells; assay type: cell-based, Chinese hamster
Excerpt: as §1, §2
In contrast, the parent CHO cell line represents a cell type with high PAT activity. Comparison of conjugate cytotoxicity in these two CHO lines provided an important screen to detect selective conjugate delivery via the PAT. For example, a conjugate with high utilization of the polyamine transporter would be very toxic to CHO cells, but less so to CHO-MG cells. In short, highly-selective PAT ligands should give high (CHO-MG/CHO) IC50 ratios.
as §3

[4] = system: L1210 cells; assay: Cytotoxicity (cell growth, MTT) in L1210 cells; assay type: cell-based, mouse
Excerpt: as §1
Biological Evaluation. Once synthesized, the conjugates were screened for cytotoxicity in L1210, CHO and CHO-MG cells. L1210 (mouse leukemia) cells were selected to enable comparisons with the published IC50 and Ki values for a variety of polyamine substrates. Chinese Hamster Ovary (CHO) cells were chosen along with a mutant PAT deficient cell line (CHO-MG) in order to comment on selective transport via the PAT (Wang et al, J. Med. Chem. 2003, 46, 2663-2671; Wang et al, J. Med. Chem. 2003, 46, 2672-2682; Wang et al., J. Med. Chem. 2003, 46, 5129-5138; Delcros et al., J. Med. Chem., 2002, 45, 5098-5111).
(§4) L1210 IC50 and Ki studies. […] The Ki values in Table 3 were determined for [^14C]spermidine uptake and reflect the affinity of the polyamine derivative for the polyamine transporter on the cell surface. With both parameters, one can determine whether high affinity for the transporter (e.g., low Ki value) translated into high cytotoxicity (e.g., low IC50 value), etc.
Biological studies. Murine leukemia cells (L1210), CHO and CHO-MG cells were grown in RPMI medium supplemented with 10% fetal calf serum, glutamine (2 mM), penicillin (100 U/mL), streptomycin (50 μg/mL). L-Proline (2 μg/mL) was added to the culture medium for CHO-MG cells. Cells were grown at 37° C. under a humidified 5% CO2 atmosphere. Aminoguanidine (AG, 2 mM) was added to the culture medium to prevent oxidation of the drugs by the enzyme (bovine serum amine oxidase) present in calf serum. Trypan blue staining was used to determine cell viability before the initiation of a cytotoxicity experiment. Cells in early to mid log-phase were used. IC50 determinations. Cell growth was assayed in sterile 96-well microtiter plates (Becton-Dickinson, Oxnard, Calif., USA). L1210 cells were seeded at 5e^4 cells/mL of medium (100 μL/well). CHO and CHO-MG cells were plated at 2e^3 cells/mL. Drug solutions (10 μL per well) of appropriate concentration were added at the time of seeding for L1210 cells and after an overnight incubation for the CHO cell lines. After exposure to the drug for 48 hr, cell growth was determined by measuring formazan formation from 3-(4,5-dimethylthiazol-2-yl)2,5-diphenyltetrazolium using a Titertek Multiskan MCC/340 microplate reader for absorbance (540 nm) measurements (Mosmann, T., J. Immunol. Methods 1983, 65, 55-63).

[5] = system: polyamine transporter (PAT); assay: Ki for inhibition of [14C]spermidine uptake in L1210 cells; assay type: cell-based, mouse; conditions: [14C]spermidine uptake, 10-min, 1 μM substrate; read-out: L1210 Ki values
Excerpt: as §1, §4
Ki procedure. The ability of the conjugates to interact with the polyamine transport system was determined by measuring competition by the conjugates against radiolabeled spermidine uptake in L1210 cells. Initially, the Km value of spermidine transport was determined as previously described (Clément et al., Biochem. J. 1995, 312, 933-938). The ability of conjugates to compete for [^14C]spermidine uptake were determined in L1210 cells by a 10-min uptake assay in the presence of increasing concentrations of competitor, using 1 μM [^14C]spermidine as substrate. Ki values for inhibition of spermidine uptake were determined using the Cheng-Prusoff equation (Cheng and Prusoff, Biochem. Pharmacol. 1973, 22, 3099-3108) from the IC50 value derived by iterative curve fitting of the sigmoidal equation describing the velocity of spermidine uptake in the presence of the respective competitor (Torossian et al., Biochem. J., 1996, 319, 21-26). L1210 cells were grown and maintained according to established procedures (Bergeron et al., J. Med. Chem. 2000, 43, 224-235) and were washed twice in HBSS prior to the transport assay.

`CCN(CCCN)Cc1c2ccccc2cc2ccccc12` [Compound 12c, N^1-Anthracen-9-ylmethyl-N^1-ethyl-propane-1,3-diamine] showed an inhibition at 18 µM [1] of 79%.
`CCNCCCCNCCCCNCc1c2ccccc2cc2ccccc12` [Compound 27, N-Anthracen-9-ylmethyl-N′-(4-ethylamino-butyl)-butane-1,4-diamine] showed an IC50 ([2]; Cricetulus griseus, CHO-MG, absence of AG, 48 h, read-out: CHO-MG IC50 w/o AG) of 51.2 µM, an IC50 ([2]; Cricetulus griseus, CHO-MG, in the presence of AG, 48 h at 37° C., read-out: CHO-MG IC50) of 57.9 µM and an IC50 ([3]; Cricetulus griseus, CHO, absence of AG, 48 h, read-out: CHO IC50 w/o AG) of 13.2 µM. For the same compound, the IC50 ([3]; Cricetulus griseus, CHO, in the presence of AG, 48 h at 37° C., read-out: CHO IC50) was 9.82 µM, the “CHOMG/CHO IC50 ratio in the absence of AG” value ([3]; absence of AG) was 4 and the “IC50 Ratio (CHO-MG/CHO) w/o AG” value ([3]; absence of AG) was 4. The “IC50 Ratio (CHO-MG/CHO), a measure of PAT selectivity” value ([3]; in the presence of AG) was 5.9, the “CHOMG/CHO IC50 ratio” value ([3]; with AG) was 5.9 and the “IC50 Ratio (CHO-MG/CHO) with AG” value ([3]; with AG) was 5.9. For the same compound, the IC50 ([4]; Mus musculus, L1210, in the presence of AG, 48 h at 37° C., read-out: L1210 IC50) was 1.01 µM, the IC50 ([4]; Mus musculus, L1210 experiments, no added SPD, read-out: L1210 IC50) was 1.01 µM and the Ki [5] was 3.5 µM.
In the case of `NCCCNCc1c2ccccc2cc2ccccc12` [Compound 16, N1-Anthracen-9-ylmethyl-propane-1,3-diamine], the inhibition at 18 µM [1] is reported as 92%.
`NCCCCNCc1c2ccccc2cc2ccccc12` [Compound 13b] was tested, and the “% Inhibition of eversion” value ([1]; 18 μM) was 91%.
In the case of `CNCCCCNCCCCNCc1c2ccccc2cc2ccccc12` [Compound 28, N-Anthracen-9-ylmethyl-N′-(4-methylamino-butyl)-butane-1,4-diaine], the IC50 ([2]; absence of AG, 48 h, read-out: CHO-MG IC50 w/o AG) is reported as 56.2 µM, the IC50 ([2]; in the presence of AG, 48 h at 37° C., read-out: CHO-MG IC50) is reported as 60 µM and the “CHOMG/CHO IC50 ratio in the absence of AG” value ([3]; absence of AG) is reported as 11.5. The “IC50 Ratio (CHO-MG/CHO) w/o AG” value ([3]; absence of AG) was 11.5, the IC50 ([3]; absence of AG, 48 h, read-out: CHO IC50 w/o AG) was 4.89 µM and the “IC50 Ratio (CHO-MG/CHO), a measure of PAT selectivity” value ([3]; in the presence of AG) was 12.3. For the same compound, the IC50 ([3]; in the presence of AG, 48 h at 37° C., read-out: CHO IC50) was 4.88 µM, the “IC50 Ratio (CHO-MG/CHO) with AG” value ([3]; with AG) was 12.3 and the IC50 ([4]; L1210 experiments, no added SPD, read-out: L1210 IC50) was 0.4 µM. It also gave an IC50 ([4]; in the presence of AG, 48 h at 37° C., read-out: L1210 IC50) of 0.4 µM, an IC50 ([4]; spermidine rescue, excess SPD (200 μM), read-out: L1210 IC50 in the presence of added SPD) of 1.38 µM and a Ki [5] of 8.2 µM.
`CCN(CCCNCCCO)Cc1c2ccccc2cc2ccccc12` [Compound 20, 3-[3-(Anthracen-9-ylmethyl-ethyl-amino)-propylamino]-propan-1-ol] was tested, and the inhibition at 18 µM [1] was 38%.
Work on `CCN(CCCNCCCNC(C)=O)Cc1c2ccccc2cc2ccccc12` [Compound 24, N-{3-[3-(Anthracen-9-ylmethyl-ethyl-amino)-propylamino]-propyl}-acetamide] yielded an inhibition at 18 µM [1] of 58%.
`CCOCCCNCCCN(CC)Cc1c2ccccc2cc2ccccc12` [Compound 21, N-Anthracen-9-ylmethyl-N′-(3-ethoxy-propyl)-N-ethyl-propane-1,3-diamine] showed an inhibition at 18 µM [1] of 36%.
